Values quoted from earlier work as cited in patent US5811459A, “Ortho substituted aromatic compounds useful as antagonists of the pain enhancing effects of E-type prostaglandins” (Zeneca Limited, priority 1994, dated 1998).

Experiments:
[1] = test system: cat trachea or chick ileum; conditions: other tissues such as the cat trachea or chick ileum
[2] = test system: guinea pig ileum or dog fundus; conditions: some tissues such as guinea pig ileum or dog fundus

## CC(=O)NNC(=O)N1Cc2ccccc2Oc2ccc(Cl)cc21 [SC-19220]
[1]
  block of the effect of PGE2: not on other tissues
[2]
  block of the effect of PGE2: blocks the effect of PGE2
